Test results as given in US20040138200A1, “Pharmaceutical compositions for treatment of Parkinson's disease” (priority 2002, published 2004).
Counter-ions that a name gives are not always drawn.

Test: rotating disk dissolution test
Format: physicochemical
Details: 300 rpm; for Rotating Disk Dissolution Rate (RDDR): crystalline salt, 20 mg pellet, about 500 ml dissolution medium at 25° C., slope normalized to initial exposed surface area
Description: In a preferred aspect, the salts of the present invention are crystalline salts. A crystalline salt of the invention dissolves slower than the crystalline maleate salt of the same compound under standard conditions of temperature, pressure, and fluid flow. Preferably, the dissolution rate of a crystalline salt of the invention, when measured by a rotating disk dissolution test, is less than 50% of that of a crystalline maleate salt of the same compound. More preferably, the dissolution rate is less than 25% of that of a crystalline maleate salt of the same compound. More preferably, the dissolution rate is less than 10% of that of a crystalline maleate salt of the same compound. For example, under the standard conditions in a rotating disc dissolution test, the maleate salt crystals dissolved at a rotating disc dissolution rate (RDDR) of 0.44 mmole sec^−1 cm^−2, whereas the xinafoate salt crystals dissolved at a rate of 0.03 mmole sec^−1 cm^−2 (see FIG. 1). In preferred embodiments, the salt of the invention the salt has a dissolution rate into aqueous solution of about 0.40 mmole sec^−1 cm^−2 or less. In more preferred embodiments, the salt of the invention the salt has a dissolution rate into aqueous solution of about 0.20 mmole sec^−1 cm^−2 or less. In more preferred embodiments, the salt of the invention the salt has a dissolution rate into aqueous solution of about 0.05 mmole sec^−1 cm^−2 or less.
Dissolution rates of sumanirole from xinafoate and maleate crystalline salts were determined using a rotating disk apparatus. In this apparatus, a die containing a pellet comprising a substance of interest is attached to an arm connected to a small motor. The die is submerged in about 500 ml of a dissolution medium at 25° C., and rotated at 300 rpm. The concentration of a compound released into solution is measured in a series of time points using an in situ UV/vis absorbance dip probe linked to a digital computer. For testing the dissolution rates of sumanirole xinafoate and sumanirole maleate crystalline salts, 20 mg of the xinafoate crystalline salt and 20 mg of the maleate crystalline salt were each pressed into pellets of uniform shape at 1000 pounds (3700 psi) for 1 minute. Each pellet was then subjected to dissolution in a rotating disc dissolution apparatus. Measurements of the amount of sumanirole dissolved into the medium, recorded as milligrams of free base equivalent of sumanirole, were plotted against time (FIG. 1). The slope of each curve, normalized to the initial exposed surface area of each disk, was used to calculate a Rotating Disk Dissolution Rate (RDDR) for each salt.

Row | Rotating Disk Dissolution Rate (RDDR) | Rotating Disk Dissolution Rate (RDDR) (listed as xinafoate salt) | dissolution rate relative to the rate of the sumanirole maleate crystalline salt (rotating disk dissolution, 25° C.) | Rotating Disk Dissolution Rate (RDDR) (listed as maleate salt) | Structure (SMILES)
1 | 0.030 mmole sec^−1 cm^−2 | 0.03 mmole sec^−1 cm^−2 | less than 10% | – | CN[C@@H]1Cc2cccc3[nH]c(=O)n(c23)C1 [sumanirole xinafoate, (R)-5,6-dihydro-5-(methylamino)-4H-imidazo[4,5,1-ij]quinolin-2(1H)-one]
2 | 0.44 mmole sec^−1 cm^−2 | – | – | 0.44 mmole sec^−1 cm^−2 | CN[C@@H]1Cc2cccc3[nH]c(=O)n(c23)C1 [sumanirole maleate, (R)-5,6-dihydro-5-(methylamino)-4H-imidazo[4,5,1-ij]quinolin-2(1H)-one, reference compound]
